Data as given in paper PMC10208570, “Peptidomimetic antibiotics disrupt the lipopolysaccharide transport bridge of drug-resistant Enterobacteriaceae” (Science Advances, 2023).
Where a SMILES comes first, the peptide text is derived from it. Bridges are numbered along the chain shown (N, C = ends). [ ]: non-standard residue; d: D form. The star is where a group is joined. X1 = CC1(CCCCS(=O)(=O)O)C(/C=C/C=C/C=C2/N(CCCS(=O)(=O)O)c3ccc(S(=O)(=O)O)cc3C2(C)C)=[N+](CCCCCC(=O)NCc2cn(CCOCCOCCOCCOCCC(=O)*)nn2)c2ccc(S(=O)(=O)[O-])cc21; Hyp = O=C(O)[C@@H]1C[C@@H](O)CN1; Pen = CC(C)(S)[C@H](N)C(=O)O; dDab = NCC[C@@H](N)C(=O)O; Dab = NCC[C@H](N)C(=O)O

Assays:
human red blood cells = test: Haemolysis; type: cell-based; details: PBS-washed human red blood cells; 1 h at 200 mg/liter, 37°C; OD 540 nm; versus 100% lysis control 2.5% Triton X-100; biological replicates
Procedure: To test their hemolytic potential, compounds were incubated in the presence of phosphate-buffered saline (PBS)–washed human red blood cells. After 1-hour incubation at 200 mg/liter and 37°C, the samples were centrifuged (3220g), the supernatants were diluted in Dulbecco’s PBS, and optical density at 540 nm was determined. The hemolysis induced by the compound was calculated versus a 100% lysis control prepared with 2.5% Triton X-100 (table S4A).

[1] = tested on: E. coli ATCC 25922 LptA Q62L mutant; test: microbe, parasite or virus in culture; details: CLSI method; clone harboring LptA Q62L
Procedure: (§1) MIC assays [Clinical and Laboratory Standards Institute (CLSI) methodology] and serial passage studies were performed as described by Luther et al. ([6]). […] Resistant mutants were isolated, and their MIC values were determined and sent to Microbes NG (Birmingham, United Kingdom) for whole-genome sequencing and bioinformatic analysis.

[2] = tested on: E. coli ATCC 25922 (parent / WT); test: microbe, parasite or virus in culture; details: CLSI method; parent strain
Procedure: as §1

in vitro = type: cell-based; details: human
Procedure: (§2) The cytotoxicity of compounds was determined by determining the number of viable cells using the Sigma Cell Counting Kit-8 (WST-8). HeLa cells were incubated at 37°C and 5% CO2 for 24 hours, after which the medium was replaced with fresh medium containing dilutions of compounds. […]

HeLa cells = test: in vitro; type: cell-based
Procedure: as §2

[3] = tested on: K. pneumoniae 968733 (CST-R); test: MIC assay (CLSI); type: cell-based, Klebsiella pneumoniae; details: CLSI method; colistin-resistant strain
Procedure: as §1

LptAm [4] = target: T1, LptAm (Escherichia coli, UniProt P0ADV1); test: FP direct binding assay; parameters: species or system E. coli
T1 construct: His6-GB1 (N, cleaved yes); made in house; host or cells: E. coli BL21 (DE3)
T1 sequence (P0ADV1 28-159): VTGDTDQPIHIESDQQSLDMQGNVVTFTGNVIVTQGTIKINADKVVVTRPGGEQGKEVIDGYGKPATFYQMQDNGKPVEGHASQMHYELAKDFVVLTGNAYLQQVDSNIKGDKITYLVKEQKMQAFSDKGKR
Procedure: (§8) Anisotropy for the blank, the fluorescently labeled peptide only (6-FL only), was measured and subtracted from r to yield r′. The r′ data were normalized and fit to the One site − Total model on GraphPad Prism 9. A nonspecific binding factor (NS) was determined using a linear regression model (y = NS ∗ X + b) at the highest concentrations and incorporated into the fit. The dissociation constants (Kd) were calculated using the total protein concentrations using the equation y=Bmax∗X/Kd+X

LptAm [5] = details: read-out: Kd ± 95CI, K. pneumoniae LptAm; FP direct binding of 6-FL; triplicates; ± 95% CI of fit
Procedure: (§3) Protein stocks were purified and concentrated in buffer 1 [50 mM Na-Pi (pH 7) and 150 mM NaCl] and, if necessary, diluted to desired concentrations using buffer 2 [50 mM Na-Pi (pH 7), 150 mM NaCl, and 0.05% Tween 20]. Peptide stocks and fluorescently labeled peptide stocks were made in buffer 2. Every serial dilution consisted of 24 wells, the first well with the highest concentrate and the last well (well 24) with the lowest. First, 50 μl of buffer 2 was added to the wells 2 to 24 of each serial dilution. Then, 100 μl of concentrated unlabeled peptide/protein in their respective buffers was added to the first well. Fifty microliters were taken from the first well and added to the second well for a 1:1 serial dilution and continued for the 24 wells. […] Plates were covered with adhesive seals and left to incubate overnight at 4°C before FP measurements the next day. Anisotropy was measured using the Tecan Safire2 plate reader using a 10-nm bandwidth and setting the excitation and emission wavelengths to 635 and 670 nm, respectively. The G-factor (G) was also determined empirically as 1.094 for the instrument and included in all the anisotropy calculations.
(§4) For direct binding assays, fluorescence anisotropy (r) was calculated using the parallel and perpendicular polarized intensities (I) by the equation r=I∥−I⊥∗G/I∥+2I⊥∗G
(§5) Anisotropy for the blank, the fluorescently labeled peptide only (6-FL only), was measured and subtracted from r to yield r′. The r′ data were normalized and fit to the One site − Total model on GraphPad Prism 9. A nonspecific binding factor (NS) was determined using a linear regression model (y = NS ∗ X + b) at the highest concentrations and incorporated into the fit.

mLptA [6] = details: read-out: Kd ± 95CI, K. pneumoniae mLptA; FP direct binding of 6-FL; triplicates; ± 95% CI of fit
Procedure: as §3, §4, §5

LptAmQ62L [7] = details: read-out: Kd ± 95CI, K. pneumoniae LptAmQ62L; FP direct binding of 6-FL; triplicates; ± 95% CI of fit
Procedure: as §3, §4, §5

LptAmQ62L [8] = target: T2, LptAmQ62L (Escherichia coli, UniProt P0ADV1, Q62L); test: FP direct binding assay; parameters: species or system E. coli
T2 construct: His6-GB1 (N, cleaved yes); made in house; host or cells: E. coli BL21 (DE3)
T2 sequence (P0ADV1 28-159 Q62L): as the sequence (P0ADV1 28-159) above, with Q35L counted along it
Procedure: as §8

LptAmQ62L, D33A = target: T3, LptAmQ62L, D33A (Escherichia coli, UniProt P0ADV1, D33A/Q62L); test: FP direct binding assay; parameters: species or system E. coli
T3 construct: His6-GB1 (N, cleaved yes); made in house; host or cells: E. coli BL21 (DE3)
T3 sequence (P0ADV1 28-159 D33A/Q62L): as the sequence (P0ADV1 28-159) above, with D6A, Q35L counted along it
Procedure: as §8

LptAmD33A = target: T4, LptAmD33A (Escherichia coli, UniProt P0ADV1, D33A); test: FP direct binding assay; parameters: species or system E. coli
T4 construct: His6-GB1 (N, cleaved yes); made in house; host or cells: E. coli BL21 (DE3)
T4 sequence (P0ADV1 28-159 D33A): as the sequence (P0ADV1 28-159) above, with D6A counted along it
Procedure: as §8

mLptA [9] = target: T5, mLptA (Escherichia coli, UniProt P0ADV1, E39V/M47A/R76A); test: biochemical; type: binding, E. coli
T5 construct: the LptA25–185 mutant E39V M47A R76A was selected as the best candidate; His6-GB1 (N, cleaved yes); made in house; host or cells: E. coli BL21 (DE3)
T5 sequence (P0ADV1 25-185 E39V/M47A/R76A): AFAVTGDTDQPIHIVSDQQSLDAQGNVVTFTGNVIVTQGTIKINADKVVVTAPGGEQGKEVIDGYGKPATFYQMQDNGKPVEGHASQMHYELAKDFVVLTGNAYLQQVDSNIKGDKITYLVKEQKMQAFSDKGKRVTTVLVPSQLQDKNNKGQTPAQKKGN
Procedure: (§6) Protein stocks were purified and concentrated in buffer 1 [50 mM Na-Pi (pH 7) and 150 mM NaCl] and, if necessary, diluted to desired concentrations using buffer 2 [50 mM Na-Pi (pH 7), 150 mM NaCl, and 0.05% Tween 20]. Peptide stocks and fluorescently labeled peptide stocks were made in buffer 2. Every serial dilution consisted of 24 wells, the first well with the highest concentrate and the last well (well 24) with the lowest. First, 50 μl of buffer 2 was added to the wells 2 to 24 of each serial dilution. Then, 100 μl of concentrated unlabeled peptide/protein in their respective buffers was added to the first well. […] Anisotropy was measured using the Tecan Safire2 plate reader using a 10-nm bandwidth and setting the excitation and emission wavelengths to 635 and 670 nm, respectively. The G-factor (G) was also determined empirically as 1.094 for the instrument and included in all the anisotropy calculations.
as §4
(§7) Anisotropy for the blank, the fluorescently labeled peptide only (6-FL only), was measured and subtracted from r to yield r′. […] A nonspecific binding factor (NS) was determined using a linear regression model (y = NS ∗ X + b) at the highest concentrations and incorporated into the fit.

mLptAQ62L = target: T6, mLptAQ62L (Escherichia coli, UniProt P0ADV1, E39V/M47A/Q62L/R76A); test: biochemical; type: binding, E. coli
T6 construct: the LptA25–185 mutant E39V M47A R76A was selected as the best candidate; His6-GB1 (N, cleaved yes); made in house; host or cells: E. coli BL21 (DE3)
T6 sequence (P0ADV1 25-185 E39V/M47A/Q62L/R76A): as the sequence (P0ADV1 25-185 E39V/M47A/R76A) above, with Q38L counted along it
Procedure: as §6, §4, §7

Compound | Haemolysis % at 0.2 g/L (human red blood cells) | MIC E. coli ATCC 25922 Q62L mutant [1] | MIC E. coli ATCC 25922 Parent [2] | IC50 at 48 h (in vitro) | IC50 (HeLa cells) | MIC K. pneumoniae 968733 (CST-R) Parent [3] | Kd (LptAm [4]) | Kd (LptAm [5]) | Kd (mLptA [6]) | Kd (LptAmQ62L [7]) | Kd (LptAmQ62L [8]) | Kd (LptAmQ62L, D33A) | Kd (LptAmD33A) | Kd (mLptA [9]) | Kd (mLptAQ62L)
CC[C@H](C)[C@H](NC(=O)[C@@H](NC(=O)[C@@H]1CCCN1C(=O)[C@@H](N)C(C)C)[C@@H](C)CC)C(=O)N[C@@H](Cc1ccc(O)cc1)C(=O)N[C@@H]1C(=O)N[C@@H](CC(N)=O)C(=O)N[C@@H](CCCNC(=N)N)C(=O)N[C@@H](CCN)C(=O)N[C@@H]([C@@H](C)O)C(=O)N[C@H](CCN)C(=O)N[C@@H](CCCCN)C(=O)N[C@H](C(=O)N[C@@H](CCN)C(=O)N[C@@H](CCCNC(=N)N)C(=O)N[C@@H](Cc2ccc(O)cc2)C(=O)O)CSSC1(C)C [Compound 3] (H-VPIIY[Pen]NR[Dab]T[dDab]KC[Dab]RY-OH; disulfide 6-13) | 0% | 1 micrograms per milliliter | 0.063 micrograms per milliliter | 41000 nM | 40000 nM | 0.25 micrograms per milliliter | – | – | – | – | – | – | – | – | –
CC[C@H](C)[C@H](NC(=O)[C@@H]1C[C@@H](O)CN1C(=O)[C@@H](N)C(C)C)C(=O)N[C@H](C(=O)N[C@@H](Cc1ccc(O)cc1)C(=O)N[C@@H]1C(=O)N[C@@H](CC(N)=O)C(=O)N[C@@H](CCCNC(=N)N)C(=O)N[C@@H](CCN)C(=O)N[C@@H](CCCCNC(=O)CCOCCOCCOCCOCCn2cc(CNC(=O)CCCCC[N+]3=C(/C=C/C=C/C=C4/N(CCCS(=O)(=O)O)c5ccc(S(=O)(=O)O)cc5C4(C)C)C(C)(CCCCS(=O)(=O)O)c4cc(S(=O)(=O)[O-])ccc43)nn2)C(=O)N[C@H](CCN)C(=O)N[C@@H](CCCCN)C(=O)N[C@H](C(=O)N[C@@H](CCN)C(=O)N[C@@H](CCCNC(=N)N)C(=O)N[C@@H](Cc2ccc(O)cc2)C(=O)O)CSSC1(C)C)[C@@H](C)O (stereo partly drawn) [6-FL] (H-V[Hyp]ITY[Pen]NR[Dab]K(X1)[dDab]KC[Dab]RY-OH; disulfide 6-13) | – | – | – | – | – | – | 6.9 ± 1.7 nM | 3.7 ± 0.9 nM | 453 ± 29.3 nM | 242 ± 45.1 nM | 73.3 ± 21.3 nM | 82.4 ± 10.3 nM | 13.8 ± 8.2 nM | 968 ± 191 nM | 8140 ± 1180 nM
